Laboratory results published in PubChem BioAssay (NCI).
Values joined by “and” are separate entries in the source; they are usually repeats but may differ in a detail not shown here. Equal entries are not always repeated.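 Each compound was tested at five concentrations against cells in 96-well plates for 48 hours. The concentration for 50% growth inhibition is given as GI50. TGI denotes the concentration required for complete inhibition of growth.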 *1 amine or outer side, *2 acyl side, *3 side chain or, on linkers, in order; H or OH if unused. Where a SMILES comes first, the peptide text is derived from it. Bridges are numbered along the chain shown (N, C = ends). [ ]: non-standard residue; d: D form. ξ: configuration not given here. X4 = CCC(C)C(N[*:1])C(O)CC(=O)O[C@H](C(=O)C(C)C(=O)[*:2])C(C)C; NMeY = CN[C@@H](Cc1ccc(O)cc1)C(=O)O; ξNMeL = CNC(CC(C)C)C(=O)O; ξT = CC(O)C(N)C(=O)O

Experiments:
Test in all cases: NCI tumour cell line growth inhibition, 48 h
RPMI-8226 leukemia = tested on: RPMI-8226 leukemia
CCRF-CEM leukemia = tested on: CCRF-CEM leukemia
OVCAR-4 ovarian = tested on: OVCAR-4 ovarian
IGROV1 ovarian = tested on: IGROV1 ovarian
SK-MEL-28 melanoma = tested on: SK-MEL-28 melanoma
SNB-19 CNS = tested on: SNB-19 CNS
SNB-75 CNS = tested on: SNB-75 CNS
NCI-H23 lung = tested on: NCI-H23 lung
SF-539 CNS = tested on: SF-539 CNS
SK-OV-3 ovarian = tested on: SK-OV-3 ovarian

Structure (SMILES)	TGI (RPMI-8226 leukemia) [µM]	TGI (CCRF-CEM leukemia) [µM]	TGI (OVCAR-4 ovarian)	TGI (IGROV1 ovarian) [µM]	TGI (SK-MEL-28 melanoma) [µM]	TGI (SNB-19 CNS) [µM]	TGI (SNB-75 CNS)	TGI (NCI-H23 lung) [µM]	TGI (SF-539 CNS) [µM]	TGI (SK-OV-3 ovarian) [µM]	GI50 (SF-539 CNS) [µM]	GI50 (SK-MEL-28 melanoma) [µM]	GI50 (SK-OV-3 ovarian) [µM]	GI50 (SNB-75 CNS) [µM]	GI50 (NCI-H23 lung) [µM]	GI50 (RPMI-8226 leukemia) [µM]	GI50 (CCRF-CEM leukemia) [µM]	GI50 (SNB-19 CNS) [µM]
O=C(N=Nc1ccccc1Br)NNc1ccccc1Br	> 100	> 100	> 100 µM	> 100	> 100	> 100	> 100 µM	> 100										
O=C(NNC(=S)Nc1ccccc1)c1csc(NC(=S)NC2CCCCC2)n1	> 100	> 100		> 100			> 100 µM	> 100	> 100	> 100								
COc1ccc(-c2c(C#N)c(-c3ccccc3)n(NS(=O)(=O)c3ccccc3)c(=O)c2C#N)cc1	68.8	> 100	> 100 µM	> 100	> 100	> 100	> 100 µM		> 100	> 100								
CCCCN(c1ccccc1)c1ncnc2c1cnn2C	48	49.6	> 100 µM	> 100	> 100	> 100	55.9 µM	> 100		> 100								
CC1(C)[C@@H]2C[C@H]1c1cnc(-c3ccccn3)cc1C2[C@@H]1c2cc(-c3ccccn3)ncc2[C@@H]2C[C@H]1C2(C)C (stereo partly specified)	> 100	> 100	85.3 µM	> 100	> 100	> 100	> 100 µM	> 100		> 100								
C/C=C/[C@H]1O[C@@](OC)([C@@H](C)[C@H](O)[C@H](C)[C@H]2OC(=O)/C(OC)=C/C(C)=C/[C@@H](C)[C@@H](O)[C@@H](C)[C@@H](O)[C@H](C)C/C(C)=C/C=C/[C@@H]2OC)CC(OC2CC(O)C(OC(N)=O)C(C)O2)[C@@H]1C (stereo partly specified)	< 0.0378		18.3 µM	15.1	14.2	18.1	19.5 µM	21.7	< 0.01	20.7								
COC(=O)c1cncc2c1CC1C3(C(=O)OC)C=NC(C4C(CO)=CCC43)C21C (stereo unspecified)		> 100	> 100 µM	> 100	> 100	> 100	> 100 µM	> 100	> 100									
O=C(c1ccco1)N(C(=S)OCc1ccccn1)c1ccccc1	> 100	> 100		> 100	> 100	> 100		> 100	> 100	> 100								
O=C1[C@@H]2Cc3c([nH]c4ccccc34)C(C3CCCCC3)N2C(=O)[C@@H]2CCCN12 (stereo partly specified)	51		> 100 µM	> 100	> 100	> 100		> 100		> 100								
OC1OC(c2ccco2)C(F)(F)C(F)(F)C1(F)F (stereo unspecified)	> 100	> 100	> 100 µM	> 100	> 100	> 100			> 100	> 100								
CCC(C)C1NC(=O)C(NC(=O)C(CC(C)C)N(C)C(=O)[C@@H]2CCCN2)C(C)OC(=O)[C@H](Cc2ccc(OC)cc2)N(C)C(=O)[C@@H]2CCCN2C(=O)[C@H](CC(C)C)NC(=O)C(C)C(=O)[C@H](C(C)C)OC(=O)CC1O (stereo partly specified) (H-P[ξNMeL][ξT][X4]LP[NMeY](Me); ester 3-C)		0.0557	0.00369 µM and 0.0185 µM	0.0107	0.00179	0.0398	0.00813 µM and 0.0191 µM	0.00218	0.00208	0.0177								
O=C1NC(N/N=C\c2ccccc2)=N/C1=C/c1ccc(Cl)cc1	59.7		31.4 µM	41.2	> 100	35.9	42.2 µM	39.9	53.8	43.4								
NC(CCCCNC(=O)OCc1ccccc1)C(=O)NC(CCCCNC(=O)OCc1ccccc1)C(=O)ON1C(=O)CCC1=O (stereo unspecified)	> 100	> 100		> 100	> 100	> 100	> 100 µM	> 100										
NC(N)=N/N=C/c1nc2sccn2c1[N+](=O)[O-]	> 100		33.6 µM	> 100	> 100	> 100	39.5 µM	36.7	> 100	> 100								
COC(=O)C(COC(=O)/C=C/c1ccc(OC(C)=O)c(OC(C)=O)c1)OC(=O)/C=C/c1ccc(OC(C)=O)c(OC(C)=O)c1 (stereo unspecified)	66.4	50.6	35.1 µM	23.9	30.9	22.2		71.8	24.2									
CCCCCCCCCCCCCCCCNc1nc(=O)n(C2CC(O)C(CO)O2)cc1F (stereo unspecified)	37.6		40.4 µM	27.6	28.4	34.6		18	11.4	28.3								
CC(C)(C)OC(=O)N1C(OP(=O)(Oc2ccccc2)Oc2ccccc2)=COc2cccnc21	53.2		> 100 µM	> 100	> 100	> 100	> 100 µM	> 100	> 100	> 100								
CC1=CC[C@@H]2CC[C@]3(C)[C@H](CC[C@@H]4[C@@]5(C)CCCNC(C)(C)[C@@H]5CC[C@]43C)[C@H]2[C@@H]1C					3.32		3.84 µM	3.37	3.13	3.5	1.69	1.81	1.89	1.98	1.78			
CSc1nncc(-c2cc3c(c(SC)n2)CCC3)n1	> 100	> 100	> 100 µM	10.1	> 100	> 100	> 100 µM	> 100		> 100								
O=C(NCCNCCO)N/N=C/c1ccc(Cl)cc1		> 100		> 100	> 100	> 100	> 100 µM	> 100	> 100	> 100								
CC[N+](CC)=c1ccc2nc3c(cc(N)c4ccccc43)oc-2c1	0.399					1.04	1.88 µM	0.358	0.32	2.7	0.174		1.37	0.61	0.125	0.0412	0.183	0.318
N#Cc1c2c(c(N3CCOCC3)n3c1nc1ccccc13)CCCC2		8.48	51.4 µM	34.9	49.3	32		47.3	39.3	67.7								
COc1cc(C2C3=C(COC3=O)OC(C)(C)Oc3cc4c(cc32)OCO4)cc(OC)c1OC (stereo unspecified)	> 87.3		> 96.2 µM	> 100	> 100			> 100	0.582	> 100								
